“Also recorded” adds a separate entry of the source. Peptide text beside a SMILES is read from it. * marks the point of attachment. pNA = O=[N+]([O-])c1ccc(N*)cc1; Boc = CC(C)(C)OC(=O)*; Bz = O=C(c1ccccc1)*
Assays:
Assay type in all cases: biochemical, Human
complement convertase = assay: Effect of enzyme inhibitors or EDTA present during incubation of PDMS in def PPP on convertase formation; conditions: for inhibition of substrate conversion by inhibitor added prior to incubation: PDMS in def PPP aliquots, substrate H-Leu-Gly-Arg-pNA, FIG. 6
Method: To verify the specificity of complement convertase activity, PDMS was incubated with diluted def PPP supplemented with Ca^++ (allowing convertases to be formed) or with EDTA (preventing convertase formation).
A number of enzyme inhibitors was used to further specify the complement convertase test of the incubated def PPP with substrate H-Leu-Gly-Arg-pNA.During incubation with PDMS in different aliquots a specific thrombin inhibitor (I2581, Kabi), C1 esterase inhibitor (Sigma), the plasmin/kallikrein/chymotrypsin inhibitor aprotinin (Bayer) and EDTA was used.

C5-convertase [1] = assay: Complement convertase released in incubated def PPP: cleavage of H- or Bz-Leu-Gly-Arg-pNA, OD 405 nm; conditions: for substrate cleavage in the incubated plasma solution: def PPP after incubation with PDMS, 60 hours, FIG. 3a; for specificity of the substrate for complement activation: judged from the effect of EDTA and enzyme inhibitors on cleavage, FIG. 6
Source text: (§1) Human blood was collected from a healthy volunteer by vena puncture. Blood was mixed immediately with sodium citrate (0.316%, final concentration) to prevent clotting. Then blood was centrifuged (1100 xg) to obtain separation between plasma and blood cells. In our experiments we used this citrated human plasma after treatment with reptilase to coagulate fibrinogen. This plasma, deficient of fibrinogen (def PPP), contains the other coagulation components and can be mixed with Ca^++ containing buffer to optimize complement activation. This def PPP was stored in aliquots at -80° C. We diluted this in 50 mM TRIS buffer+33 mM CaCl2 (pH 7.4) to a percentage of 20% prior to use. The biomaterial PDMS (polydimethyl-siloxane, silicon rubber) was cut into 1 cm^2 pieces. For cleaning the biomaterial it was incubated at first in 70% ethanol, and then rinsed in 0.9% NaCl. During the experiment the pieces of biomaterials were incubated in 500 μl diluted def PPP during 0, 10, 30, or 60 min at room temperature. After incubation, the biomaterials were rinsed 3 times with saline. Then the biomaterials were incubated in BOC-Leu-Gly-Arg-pNA, diluted in TRIS buffer +33 mM CaCl2, during 60 hours at room temperature in the dark. Simultaneously, also 100 μl def PPP, in which the biomaterials had been incubated, were mixed with 100 μl of H-Leu-Gly-Arg-pNA or Bz-Leu-Gly-Arg-pNA, diluted in TRIS buffer, supplemented with 33 mM CaCl2. After these 60 hours the OD was measured at 405 nm in a spectrophotometer (microplate reader 3550 UV; Biorad, Richmond, Calif., USA).
In a second experiment the incubated def PPP was incubated in the presence of Ca^++ as described above and 100 μl def PPP was collected after 30 minutes. Then this collected def PPP was incubated with H-Leu-Gly-Arg-pNA and Bz-Leu-Gly-Arg-pNA in the presence of Ca^++ or in the absence of Ca^++ with EDTA.

C5-convertase [2] = assay: Complement convertase bound to biomaterial surface: cleavage of BOC-Leu-Gly-Arg-pNA, OD 405 nm; conditions: washed PDMS after incubation in def PPP; 60 hours; FIG. 3a
Method: as §1, with “Blood was mixed immediately with sodium citrate (0.316%, final concentration) to prevent clotting.” left out, “CaCl2.” for “CaCl2. After these 60 hours the OD was measured at 405 nm in a spectrophotometer (microplate reader 3550 UV; Biorad, Richmond, Calif., USA).”

Compound	inhibition of substrate conversion by inhibitor added prior to incubation (complement convertase)	substrate cleavage in the incubated plasma solution (C5-convertase [1])	specificity of the substrate for complement activation (C5-convertase [1]; FIG. 4a)	also measured
O=C(O)CN(CCN(CC(=O)O)CC(=O)O)CC(=O)O [EDTA, ethylenediamine tetra-acetic acid, reference compound]	almost completely prevented substrate conversion; also recorded: best inhibitor	–	–	convertase formation with EDTA instead of Ca++ during incubation (complement convertase; PDMS in diluted def PPP supplemented with Ca++ or EDTA): completely prevented convertase formation; effect of EDTA during substrate cleavage (second incubation) on formed convertases (C5-convertase [1]; def PPP collected after 30 min with PDMS, EDTA added with the substrate, FIG. 4a): did not prevent substrate cleavage by formed complexes; also recorded: formed convertases remained active in EDTA
CC(C)C[C@H](NC(=O)c1ccccc1)C(=O)NCC(=O)N[C@@H](CCCNC(=N)N)C(=O)Nc1ccc([N+](=O)[O-])cc1 [Bz-Leu-Gly-Arg-pNA] (Bz-Leu-Gly-Arg-pNA)	–	effective in the plasma solution; also recorded: colour formation	not reduced by EDTA; also recorded: considered non-specific	–
CC(C)C[C@H](NC(=O)OC(C)(C)C)C(=O)NCC(=O)N[C@@H](CCCNC(=N)N)C(=O)Nc1ccc([N+](=O)[O-])cc1 [BOC-Leu-Gly-Arg-pNA] (Boc-Leu-Gly-Arg-pNA)	–	–	–	substrate cleavage on the PDMS surface (C5-convertase [2]): most effective on the PDMS surface; also recorded: colour formation
aprotinin	did not inhibit substrate conversion; also recorded: then aprotinin	–	–	–
CC(C)C[C@H](N)C(=O)NCC(=O)N[C@@H](CCCNC(=N)N)C(=O)Nc1ccc([N+](=O)[O-])cc1 [H-Leu-Gly-Arg-pNA] (H-Leu-Gly-Arg-pNA)	–	effective in the plasma solution; also recorded: colour formation	complement dependent	–
